Source: patent US20060128757A1, “Pyridine derivatives useful as cyclooxygenase inhibitor” (Astellas Pharma Inc., priority 2001, published 2006)
pIC50: −log10 of the molar value. Read-outs that look alike come from different tables or passages of the source.

Columns and labels:
COX-I = molecular target: T1, COX-I (Homo sapiens, UniProt P23219); test: Whole blood assay for COX-I (TXB2 production); assay type: cell-based; conditions: for pIC50: 1 hr at 37° C., read-out: COX-I IC50
T1 construct: Fresh blood was collected by syringe without anticoagulants from volunteers with consent; endogenous in cells; host or cells: fresh human whole blood from volunteers, left to clot (TXB2 read-out)
Procedure: Fresh blood was collected by syringe without anticoagulants from volunteers with consent. The subjects had no apparent inflammatory conditions and had not taken any medication for at least 7 days prior to blood collection. 500 μl aliquots of human whole blood were immediately incubated with 2 μl of either dimethyl sulfoxide vehicle or a test compound at final concentrations for 1 hr at 37° C. to allow the blood to clot. Appropriate treatments (no incubation) were used as blanks. […] The blood was centrifuged at 6000×g for 5 min at 4° C. to obtain serum. A 100 μl aliquot of serum was mixed with 400 μl methanol for protein precipitation. The supernatant was obtained by centrifuging at 6000×g for 5 min at 4° C. and was assayed for TXB2 using an enzyme immunoassay kit according to the manufacturer's procedure. For a test compound, the results were expressed as percent inhibition of thromboxane B2 (TXB2) production relative to control incubations containing dimethyl sulfoxide vehicle. The data were analyzed by that a test compound at the indicated concentrations was changed log value and was applied simple linear regression. IC50 value was calculated by least squares method.

COX-II = molecular target: T2, COX-II (Homo sapiens, UniProt P35354); test: Whole blood assay for COX-II (LPS-induced PGE2 production); assay type: cell-based; conditions: for pIC50: LPS 24 hr, read-out: COX-II IC50
T2 construct: lipopolysaccharide for 24 hr at 37° C. for induction of COX-II; endogenous in cells; host or cells: heparinized fresh human whole blood from volunteers, LPS-stimulated for 24 hr (PGE2 read-out)
T2 sequence (P35354 18-604): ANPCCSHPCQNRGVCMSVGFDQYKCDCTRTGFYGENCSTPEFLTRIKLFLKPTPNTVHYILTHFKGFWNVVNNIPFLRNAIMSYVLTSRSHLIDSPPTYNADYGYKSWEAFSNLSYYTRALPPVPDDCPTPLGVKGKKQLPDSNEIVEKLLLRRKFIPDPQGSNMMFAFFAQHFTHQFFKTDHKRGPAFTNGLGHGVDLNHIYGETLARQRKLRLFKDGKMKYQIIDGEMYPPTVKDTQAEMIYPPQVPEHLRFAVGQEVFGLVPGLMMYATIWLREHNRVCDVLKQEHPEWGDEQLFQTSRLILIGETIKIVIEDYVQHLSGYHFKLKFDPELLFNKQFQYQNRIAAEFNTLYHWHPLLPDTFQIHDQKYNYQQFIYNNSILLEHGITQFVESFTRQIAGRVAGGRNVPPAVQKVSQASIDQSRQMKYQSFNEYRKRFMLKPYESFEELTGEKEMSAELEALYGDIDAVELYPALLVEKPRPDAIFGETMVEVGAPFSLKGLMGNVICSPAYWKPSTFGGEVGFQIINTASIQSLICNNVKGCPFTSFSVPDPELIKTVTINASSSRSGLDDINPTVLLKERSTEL
Procedure: Fresh blood was collected in heparinized tubes by syringe from volunteers with consent. The subjects had no apparent inflammatory conditions and had not taken any medication for at least 7 days prior to blood collection. 500 μl aliquots of human whole blood were incubated with either 2 μl dimethyl sulfoxide vehicle or 2 μl of a test compound at final concentrations for 15 min at 37° C. This was followed by incubation of the blood with 10 μl of 5 mg/ml lipopolysaccharide for 24 hr at 37° C. for induction of COX-II. Appropriate PBS treatments (no LPS) were used as blanks. At the end of the incubation, the blood was centrifuged at 6000×g for 5 min at 4° C. to obtain plasma. A 100 μl aliquot of plasma was mixed with 400 μl methanol for protein precipitation. The supernatant was obtained by centrifuging at 6000×g for 5 min at 4° C. and was assayed for prostagrandin E2 (PGE2) using a radioimmunoassay kit after conversion of PGE2 to its methyl oximate derivative according to the manufacturer's procedure. For a test compound, the results were expressed as percent inhibition of PGE2 production relative to control incubations containing dimethyl sulfoxide vehicle. The data were analyzed by that a test compound at the indicated concentrations was changed log value and was applied simple linear regression. IC50 value was calculated by least squares method.

[1] = system: Adjuvant Arthritis in Rats; test: Analgesic activity: effect on adjuvant arthritis in rats (Randall-Selitto); assay type: in vivo, Lewis rats; conditions: ratio of threshold pressure of treated vs non-treated rats
[2] = system: Stretching responses in mice; test: Stretching test (acetic acid i.p.); assay type: in vivo, Male ddY mice; conditions: 10 mg/Kg orally, acetic acid i.p. 1 h after drug
Procedure: Male ddY mice were used after a 24 h fast. Drugs were orally administered to groups of 10 mice. Mice were injected intraperitoneally (i.p.) with 0.2 ml/10 g of 0.6% acetic acid 1 h after the drug administration and then placed singly in a plastic animal cage. Stretching responses, defined as constriction of the abdomen with stretching of the hind limbs, were counted for 10 min from 3 min after the i.p. injection of acetic acid.

[3] = system: stomachs (gastric lesions) of rats; test: Gastric ulcerogenic activity in rats; assay type: in vivo, Male Sprague-Dawley rats; conditions: oral, 5 h before autopsy, rats fasted 24 h
Procedure: Male Sprague-Dawley rats were used after a 24 h fast. Drugs were orally administered to groups of 10 rats 5 h before autopsy. The stomachs were macroscopically inspected and scored as follows: 0, no evidence of gastric lesions; 1, spotty submucosal hemorrhage or appearance of erosion; 3, widespread adherence of blood and large areas of submucosal hemorrhage or one to four small ulcers; 4, more than four small ulcers or one large ulcer; 5, numerous large ulcers.

T1 sequence (P23219 24-599): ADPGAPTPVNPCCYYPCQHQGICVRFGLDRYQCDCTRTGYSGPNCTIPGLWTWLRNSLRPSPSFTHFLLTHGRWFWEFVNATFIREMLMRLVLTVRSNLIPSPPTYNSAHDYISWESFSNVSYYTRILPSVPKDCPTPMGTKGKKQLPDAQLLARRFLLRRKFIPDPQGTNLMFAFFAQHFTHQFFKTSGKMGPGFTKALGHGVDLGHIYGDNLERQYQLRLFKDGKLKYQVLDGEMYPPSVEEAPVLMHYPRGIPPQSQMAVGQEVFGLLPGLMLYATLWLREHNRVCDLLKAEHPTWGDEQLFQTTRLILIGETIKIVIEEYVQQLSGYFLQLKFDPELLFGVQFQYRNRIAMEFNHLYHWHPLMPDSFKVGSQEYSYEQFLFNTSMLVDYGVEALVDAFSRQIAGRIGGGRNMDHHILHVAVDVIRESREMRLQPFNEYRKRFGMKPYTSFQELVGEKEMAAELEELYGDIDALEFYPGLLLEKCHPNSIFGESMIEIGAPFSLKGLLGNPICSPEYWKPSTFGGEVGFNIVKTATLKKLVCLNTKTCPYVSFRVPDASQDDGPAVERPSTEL

Row | SMILES | pIC50 (COX-I) | pIC50 (COX-II) | Gastric ulcerogenic activity (Non-toxic dose) [3] [mg/kg] | other results
1 | COc1ccc(-c2cc(C#N)c(Cl)nc2-c2ccc(OC)cc2)cc1 [Example 1-(3), 2-chloro-5-(4-methoxyphenyl)-6-(4-methoxyphenyl) pyridine-3-carbonitrile] | > 7.00 | < 6.00 |  | 
2 | COc1ccc(-c2cc(C#N)cnc2-c2ccc(OC)cc2)cc1 [Example 4, 5-(4-methoxyphenyl)-6-(4-methoxyphenyl)-pyridine-3-carbonitrile] | > 7.00 | < 6.00 | >100 | Analgesic activity in adjuvant arthritis -3.2 mg/Kg- ([1]; 3.2 mg/Kg, 2 hr after administration): 1.57; The coefficient of analgesic ([1]; Dose 3.2 mg/kg, pain threshold 2 hr after administration, ratio of 1.5 = effective dose): >1.5; IC50 (COX-I; Table 1, read-out: Whole blood assay (IC50: μM) COX-I): 0.017 µM; IC50 (COX-II; Table 1, read-out: Whole blood assay (IC50: μM) COX-II): 1.9 µM; Inhibiting activity in stretching test [2]: 48%; melting point: 107 to 108 °C
3 | COc1ccc(-c2cc(C#N)c(OC)nc2-c2ccc(OC)cc2)cc1 [Example 6, 2-methoxy-5-(4-methoxyphenyl)-6-(4-methoxyphenyl)-pyridine-3-carbonitrile] | > 7.00 | < 6.00 |  | 
4 | CC(C(=O)O)c1cccc(C(=O)c2ccccc2)c1 (centres unmarked) [G, Ketoprofen] |  |  | 3.2 | 
5 | COc1ccc(-c2noc(CC(=O)O)c2-c2ccc(OC)cc2)cc1 [H, Mofezolac] |  |  | 10 | 
6 | COc1ccc2c(c1)c(CC(=O)O)c(C)n2C(=O)c1ccc(Cl)cc1 [I, Indomethacin] |  |  | 1 | 
7 | O=C(O)Cc1ccccc1Nc1c(Cl)cccc1Cl [J, Diclofenac] |  |  | 3.2 | 
